One assay deals with T1, SMARCA2 (Homo sapiens, UniProt P51531).
T1 construct: SMARCA2-HiBiT knock-in Hela monoclonal cell (CS302366); host or cells: HeLa SMARCA2-HiBiT knock-in monoclonal cells (heterozygous knock-in)
As to the kind of experiment: SMARCA2 HiBiT degradation assay in HeLa cells. As to conditions: 18 hours incubation. The format is cell-based. The procedure:
(§1) Example A. SMARCA2 HiBiT and SMARCA4 HiBiT Degradation Assay
(§2) Preparation of SMARCA2/4-HiBiT Knock-In Cells
(§3) HiBiT peptide knock-in of SMARCA2 in LgBiT expressing HEK293T cells was performed by CRISPR-mediated tagging system as described Promega. The homozygous HiBiT knock-in on c-terminus SMARCA2 was confirmed by sanger sequence. SMARCA2-HiBiT knock-in Hela monoclonal cell (CS302366) and SMARCA4-HiBiT knock-in Hela monoclonal cell (CS3023226) were purchased from Promega. The heterozygous HiBiT-knock-in was confirmed by sanger sequence in both SMARCA2-HiBiT and SMARCA4-HiBiT monoclonal cells.
(§4) SMARCA2 HiBiT and SMARCA4 HiBiT Degradation Assay in HeLa Cells
(§5) Compounds were dissolved in DMSO to make 10 mM stock and 3-fold series dilutions were further conducted keeping the highest concentration 10 μM. NCIH1693 and NCIH520 cells were maintained in PRMI 1640 medium (Corning Cellgro, Catalog #:10-040-CV) supplemented with 10% v/v FBS (GE Healthcare, Catalog #: SH30910.03) by splitting 1:3 twice a week.
(§6) Dispense 10 ul aliquot of prepared Hela-SMARCA2-HiBiT or Hela-SMARCA4-HiBiT cells (1:1 ratio of cells:Trypan Blue (#1450013, Bio-Rad)) onto cell counting slide (#145-0011, Bio-Rad) and obtain cell density and cell viability using cell counter (TC20, Bio-Rad). Remove appropriate volume of resuspended cells from culture flask to accommodate 2500 cells/well @[…]. Transfer Hela-HiBiT cells to 50 mL conical (#430290, Corning). Spin down at 1000 rpm for 5 min using tabletop centrifuge (SPINCHRON 15, Beckman). Discard supernatant and resuspend cell pellet in modified EMEM (#30-2003, ATCC) cell culture media containing 10% FBS (F2422-500 ML, Sigma), and 1× Penicillin/Streptomycin (200 g/L) (30-002-CI, Corning) to a cell density of 125,000 cells/mL. Dispense […] of resuspended Hela-HiBit cells per well in 384-well TC treated plate (#12-565-343, Thermo Scientific) using standard cassette (#50950372, Thermo Scientific) on Multidrop Combi (#5840310, Thermo Scientific) inside laminar flow cabinet. Dispense test compounds onto plates using digital liquid dispenser (D300E, Tecan). Incubate plates in humidified tissue culture incubator @37° C. for 18 hours. Add […] of prepared Nano-Glo® HiBiT Lytic detection buffer (N3050, Promega) to each well of 384-well plate using small tube cassette (#24073295, Thermo Scientific) on Multidrop Combi, incubate @RT for 30-60 min. Read plates on microplate reader (Envision 2105, PerkinElmer) using 384 well Ultra-Sensitive luminescence mode. Raw data files and compound information reports are swept into centralized data lake and deconvoluted using automated scripts designed by TetraScience, Inc. Data analysis, curve-fitting and reporting done in Dotmatics Informatics Suite using Screening Ultra module.
(§7) In Table 5, A=DC50<0.1 μM; B=0.1 μM≤DC50<1 μM and C=DC50>1 μM. In Table 5, A=Dmax>75% and B=50%<Dmax≤75% and C=Dmax<50%.
A general note: HiBiT is a short tag that completes a luciferase, so light tracks the accessible tagged protein.

Another assay has as its target T2, SMARCA4 (Homo sapiens, UniProt P51532).
T2 construct: SMARCA4-HiBiT knock-in Hela monoclonal cell (CS3023226) were purchased from Promega; host or cells: HeLa SMARCA4-HiBiT knock-in monoclonal cells (heterozygous knock-in)
As to the kind of experiment: SMARCA4 HiBiT degradation assay in HeLa cells. In kind it is cell-based. To be noted: 18 hours incubation. As for the experimental part:
as §1, §2, §3, §4, §5, §6, §7

Broadly, the DC50 is the midpoint of the concentration-degradation curve. Read a high DC50 as degradation only at high concentration. In general, Dmax refers to the greatest extent of degradation seen. A lower Dmax goes with shallow degradation.

Bounds are passed on as bounds.

T1 sequence (P51531 whole entry): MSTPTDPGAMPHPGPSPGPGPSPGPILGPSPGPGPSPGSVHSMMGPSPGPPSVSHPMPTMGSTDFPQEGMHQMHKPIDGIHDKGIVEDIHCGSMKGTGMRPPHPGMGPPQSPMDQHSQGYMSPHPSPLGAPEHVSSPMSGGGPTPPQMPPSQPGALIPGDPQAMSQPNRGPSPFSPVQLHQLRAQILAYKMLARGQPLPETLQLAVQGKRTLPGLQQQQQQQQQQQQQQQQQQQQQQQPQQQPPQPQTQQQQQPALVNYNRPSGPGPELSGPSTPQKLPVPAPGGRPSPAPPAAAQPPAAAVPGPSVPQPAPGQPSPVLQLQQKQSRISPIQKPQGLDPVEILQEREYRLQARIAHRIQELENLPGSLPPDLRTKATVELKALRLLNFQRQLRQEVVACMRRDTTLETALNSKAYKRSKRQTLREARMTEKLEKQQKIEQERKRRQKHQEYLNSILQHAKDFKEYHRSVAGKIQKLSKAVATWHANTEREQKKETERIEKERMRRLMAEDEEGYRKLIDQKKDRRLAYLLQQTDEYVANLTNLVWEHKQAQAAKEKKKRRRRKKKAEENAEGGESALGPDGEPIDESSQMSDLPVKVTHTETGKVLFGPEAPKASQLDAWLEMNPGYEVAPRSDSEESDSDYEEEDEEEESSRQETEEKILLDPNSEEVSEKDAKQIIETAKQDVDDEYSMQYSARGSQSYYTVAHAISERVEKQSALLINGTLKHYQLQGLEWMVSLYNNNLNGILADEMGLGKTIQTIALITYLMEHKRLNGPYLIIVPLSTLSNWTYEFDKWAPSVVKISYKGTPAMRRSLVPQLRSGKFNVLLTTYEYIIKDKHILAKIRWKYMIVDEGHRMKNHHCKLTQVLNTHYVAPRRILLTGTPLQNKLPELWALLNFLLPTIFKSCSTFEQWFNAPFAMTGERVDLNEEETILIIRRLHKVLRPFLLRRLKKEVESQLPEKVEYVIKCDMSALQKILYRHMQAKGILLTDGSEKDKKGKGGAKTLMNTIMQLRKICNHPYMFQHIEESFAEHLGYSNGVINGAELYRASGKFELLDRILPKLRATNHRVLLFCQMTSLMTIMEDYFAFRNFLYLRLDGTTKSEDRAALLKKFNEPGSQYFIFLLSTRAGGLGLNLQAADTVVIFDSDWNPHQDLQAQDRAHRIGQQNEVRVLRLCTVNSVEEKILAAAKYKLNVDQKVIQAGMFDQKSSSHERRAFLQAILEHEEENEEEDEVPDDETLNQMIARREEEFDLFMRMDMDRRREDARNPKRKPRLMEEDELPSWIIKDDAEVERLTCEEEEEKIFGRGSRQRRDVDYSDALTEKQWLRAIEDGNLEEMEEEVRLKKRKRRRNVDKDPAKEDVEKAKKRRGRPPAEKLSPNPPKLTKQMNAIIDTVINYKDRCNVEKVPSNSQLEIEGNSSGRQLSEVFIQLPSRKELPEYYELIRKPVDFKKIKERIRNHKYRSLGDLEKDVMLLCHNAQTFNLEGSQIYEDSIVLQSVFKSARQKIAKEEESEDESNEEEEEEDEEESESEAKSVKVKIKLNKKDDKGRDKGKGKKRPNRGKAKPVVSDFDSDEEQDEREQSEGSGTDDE
T2 sequence (P51532 whole entry): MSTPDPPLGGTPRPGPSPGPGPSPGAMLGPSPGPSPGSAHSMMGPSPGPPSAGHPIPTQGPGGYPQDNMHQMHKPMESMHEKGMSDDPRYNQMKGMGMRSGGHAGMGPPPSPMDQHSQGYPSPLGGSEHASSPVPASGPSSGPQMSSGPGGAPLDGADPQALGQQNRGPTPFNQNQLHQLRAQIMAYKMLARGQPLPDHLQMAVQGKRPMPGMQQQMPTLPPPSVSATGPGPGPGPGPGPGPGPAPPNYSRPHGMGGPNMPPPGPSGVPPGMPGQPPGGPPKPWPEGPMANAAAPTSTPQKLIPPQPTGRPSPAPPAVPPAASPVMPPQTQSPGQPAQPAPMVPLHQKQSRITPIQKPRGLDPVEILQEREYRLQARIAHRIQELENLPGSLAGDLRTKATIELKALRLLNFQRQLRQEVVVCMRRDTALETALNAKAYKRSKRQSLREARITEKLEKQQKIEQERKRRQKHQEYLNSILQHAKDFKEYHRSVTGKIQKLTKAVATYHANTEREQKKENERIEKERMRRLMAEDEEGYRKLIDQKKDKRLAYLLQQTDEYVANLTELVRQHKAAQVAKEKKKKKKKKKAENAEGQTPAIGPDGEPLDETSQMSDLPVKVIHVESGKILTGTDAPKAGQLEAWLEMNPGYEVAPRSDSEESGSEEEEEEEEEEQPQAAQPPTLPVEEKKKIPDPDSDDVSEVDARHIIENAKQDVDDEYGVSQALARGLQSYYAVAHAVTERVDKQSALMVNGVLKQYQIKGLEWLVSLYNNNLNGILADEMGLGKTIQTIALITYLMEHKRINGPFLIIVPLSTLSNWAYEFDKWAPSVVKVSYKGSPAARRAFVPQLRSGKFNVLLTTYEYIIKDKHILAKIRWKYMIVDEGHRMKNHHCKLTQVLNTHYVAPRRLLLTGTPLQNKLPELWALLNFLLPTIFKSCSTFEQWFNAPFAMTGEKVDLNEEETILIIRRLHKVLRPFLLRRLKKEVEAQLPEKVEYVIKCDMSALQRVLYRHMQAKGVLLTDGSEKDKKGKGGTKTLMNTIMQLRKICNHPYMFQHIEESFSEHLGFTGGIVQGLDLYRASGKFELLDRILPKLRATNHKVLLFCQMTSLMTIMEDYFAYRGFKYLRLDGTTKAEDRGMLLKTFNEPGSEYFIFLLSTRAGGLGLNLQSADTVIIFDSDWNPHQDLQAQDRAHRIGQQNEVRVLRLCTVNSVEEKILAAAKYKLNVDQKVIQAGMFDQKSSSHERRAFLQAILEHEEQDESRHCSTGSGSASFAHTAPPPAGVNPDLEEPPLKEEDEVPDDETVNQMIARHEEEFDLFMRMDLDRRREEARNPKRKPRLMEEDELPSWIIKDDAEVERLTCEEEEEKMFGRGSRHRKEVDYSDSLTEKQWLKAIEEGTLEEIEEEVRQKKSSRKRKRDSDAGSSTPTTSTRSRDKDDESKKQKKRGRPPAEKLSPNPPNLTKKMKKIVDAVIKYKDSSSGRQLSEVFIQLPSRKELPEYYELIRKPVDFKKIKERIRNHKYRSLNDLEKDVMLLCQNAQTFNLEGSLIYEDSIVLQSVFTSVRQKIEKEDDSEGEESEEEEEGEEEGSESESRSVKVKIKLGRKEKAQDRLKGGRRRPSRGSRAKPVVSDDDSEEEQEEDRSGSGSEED

As for `CC1(C)CN(CC2CCN(c3ccc4c(c3)C(=O)N([C@H]3CCC(=O)NC3=O)C4)CC2)CCN1C(=O)N1C2CCC1Cc1c([nH]c3nnc(-c4cccc(F)c4O)cc13)C2` (stereo partly drawn) [Example 6, (3S)-3-(6-(4-((4-(3-(3-fluoro-2-hydroxyphenyl)-6,7,8,9,10,11-hexahydro-5H-6,9-epiminocycloocta[4,5]pyrrolo[2,3-c]pyridazine-12-carbonyl)-3,3-dimethylpiperazin-1-yl)methyl)piperidin-1-yl)-1-oxoisoindolin-2-yl)piperidine-2,6-dione], at SMARCA2, the DC50 is < 100 nM and the Dmax was > 75%. On SMARCA4, this compound showed a DC50 of 100 to 1000 nM and a Dmax of 50 to 75%.
For `O=C1CC[C@H](N2Cc3ccc(N4CCC(CN5CCN(C(=O)N6CCc7[nH]c8nnc(-c9ccccc9O)cc8c7CC6)CC5)CC4)cc3C2=O)C(=O)N1` [Example 3, (S)-3-(6-(4-((4-(3-(2-hydroxyphenyl)-5,6,7,8,9,10-hexahydropyridazino[4′,3′:4,5]pyrrolo[2,3-d]azepine-7-carbonyl)piperazin-1-yl)methyl)piperidin-1-yl)-1-oxoisoindolin-2-yl)piperidine-2,6-dione], in that order: < 100 nM, > 75%, < 100 nM and > 75%.
The matching figures for `CC1(C)CN(CC2CCN(c3ccc4c(c3)C(=O)N([C@H]3CCC(=O)NC3=O)C4)CC2)CCN1C(=O)N1CC2CCC1Cc1c2[nH]c2nnc(-c3cccc(F)c3O)cc12` (stereo partly drawn) [Example 7, (3S)-3-(6-(4-((4-(3-(3-fluoro-2-hydroxyphenyl)-5,6,7,8,9,10-hexahydro-6,9-(epiminomethano)cyclohepta[4,5]pyrrolo[2,3-c]pyridazine-12-carbonyl)-3,3-dimethylpiperazin-1-yl)methyl)piperidin-1-yl)-1-oxoisoindolin-2-yl)piperidine-2,6-dione]: 100 to 1000 nM, < 50%, 100 to 1000 nM and < 50%.
The matching figures for `CCC1CN(C(=O)N2CCN(CC3CCN(c4ccc5c(c4)C(=O)N([C@H]4CCC(=O)NC4=O)C5)CC3)CC2(C)C)CCc2c1[nH]c1nnc(-c3cccc(F)c3O)cc21` (stereo partly drawn) [Example 5, (3S)-3-(6-(4-((4-(9-ethyl-3-(3-fluoro-2-hydroxyphenyl)-5,6,7,8,9,10-hexahydropyridazino[4′,3′:4,5]pyrrolo[2,3-d]azepine-7-carbonyl)-3,3-dimethylpiperazin-1-yl)methyl)piperidin-1-yl)-1-oxoisoindolin-2-yl)piperidine-2,6-dione]: 100 to 1000 nM, 50 to 75%, > 1000 nM and < 50%.
On to `C[C@@H]1CN(CC2CCN(c3ccc4c(c3)C(=O)N([C@H]3CCC(=O)NC3=O)C4)CC2)C[C@H](C)N1C(=O)N1CCc2[nH]c3nnc(-c4ccccc4O)cc3c2CC1` [Example 2, (S)-3-(6-(4-(((3R,5S)-4-(3-(2-hydroxyphenyl)-5,6,7,8,9,10-hexahydropyridazino[4′,3′:4,5]pyrrolo[2,3-d]azepine-7-carbonyl)-3,5-dimethylpiperazin-1-yl)methyl)piperidin-1-yl)-1-oxoisoindolin-2-yl)piperidine-2,6-dione], for which the DC50 on SMARCA2 and at SMARCA4 was < 100 nM throughout. Further, the Dmax at SMARCA2 and on SMARCA4 was > 75% in each case.
Regarding `CC1(C)CN(CC2CCN(c3ccc4c(c3)C(=O)N([C@H]3CCC(=O)NC3=O)C4)CC2)CCN1C(=O)N1CCc2[nH]c3nnc(-c4cccc(F)c4O)cc3c2CC1` [Example 4, (S)-3-(6-(4-((4-(3-(3-Fluoro-2-hydroxyphenyl)-5,6,7,8,9,10-hexahydro-pyridazino[4′,3′:4,5]pyrrolo[2,3-d]azepine-7-carbonyl)-3,3-dimethylpiperazin-1-yl)methyl)piperidin-1-yl)-1-oxoisoindolin-2-yl)piperidine-2,6-dione], at SMARCA2, the DC50 is < 100 nM and the Dmax fell in the range of 50 to 75%. For the same compound, on SMARCA4, the DC50 is > 1000 nM and the greatest degradation seen (Dmax) was < 50%.
For `CC1(C)CN(CC2CCN(c3ccc4c(c3)C(=O)N([C@H]3CCC(=O)NC3=O)C4)CC2)CCN1C(=O)N1CCc2[nH]c3nnc(-c4ccccc4O)cc3c2CC1` [Example 1, (S)-3-(6-(4-((4-(3-(2-Hydroxyphenyl)-5,6,7,8,9,10-hexahydropyridazino [4′,3′:4,5]pyrrolo[2,3-d]azepine-7-carbonyl)-3,3-dimethylpiperazin-1-yl)methyl)piperidin-1-yl)-1-oxoisoindolin-2-yl)piperidine-2,6-dione], in that order: < 100 nM, > 75%, < 100 nM and > 75%.

The values above are taken from patent publication US20250074916A1, “BRM TARGETING COMPOUNDS AND ASSOCIATED METHODS OF USE” (Prelude Therapeutics Incorporated, priority 2023, published 2025).
